Assays:
[1] = tested on: cabbage phospholipase D (cPLD, EC 3.1.4.4); assay: Purified cabbage PLD activity (choline release from PC), enzyme kinetics with lipids; type: biochemical; conditions: for Ki: cPLD 3 u/reaction, 30° C., PC 0.5-5 mM, Ki from Slope = Km/Vm (1 + [I]/Ki); for Vm app: cPLD in presence of the lipid, enzyme alone Vm 0.29 (nmoles/sec); for inhibition of cPLD (in words): compared with PSDP
Protocol: Reactions were terminated at 30 sec intervals and choline release quantitated as in FIG. 2 legend. Values represent the mean for n≧4 for reactions in the absence of PSDP (●, r^2=0.963) and the mean for n≧3 with PSDP (Δ, r^2=0.995, 0.971 and 0.953 for 10, 100 and 1000 nM, respectively). CS Chem3D Pro software (CambridgeSoft Corp., Cambridge, Mass.) was used to calculate an energy minimized model of PSDP (inset).
(§1) PMN lysates (90-130 μg protein), purified phospholipase D (3-30 units) (EC 3.1.4.4., Sigma Chemical Co.) or recombinant hPLD1b were warmed (37° C. for mammalian enzyme and 30° C. for cabbage, 3 min) and exposed to PSDP, PSMP or FDP (10-1000 nM, 5 min, 37° C. or 30° C.) followed by PC (0.5 to 5 mM) in Tris-HCl (50 mM pH 7.5) with CaCl2 (30 mM). Reactions were terminated at 30 second intervals (0-90 seconds) with Tris-HCl (1 M) plus EDTA (50 mM). Choline release was quantitated as in ref 26.

[2] = target: T1, recombinant human PLD1b (rhPLD1b) (Homo sapiens, UniProt Q13393); assay: Recombinant human PLD1b activity (choline release from PC), enzyme kinetics with PSDP; type: biochemical
T1 construct: made in house; host or cells: Spodoptera frugiperda Sf9 cells, recombinant baculovirus (pACGHLT transfer vector)
T1 sequence (Q13393 1-1036 isoform Q13393-2): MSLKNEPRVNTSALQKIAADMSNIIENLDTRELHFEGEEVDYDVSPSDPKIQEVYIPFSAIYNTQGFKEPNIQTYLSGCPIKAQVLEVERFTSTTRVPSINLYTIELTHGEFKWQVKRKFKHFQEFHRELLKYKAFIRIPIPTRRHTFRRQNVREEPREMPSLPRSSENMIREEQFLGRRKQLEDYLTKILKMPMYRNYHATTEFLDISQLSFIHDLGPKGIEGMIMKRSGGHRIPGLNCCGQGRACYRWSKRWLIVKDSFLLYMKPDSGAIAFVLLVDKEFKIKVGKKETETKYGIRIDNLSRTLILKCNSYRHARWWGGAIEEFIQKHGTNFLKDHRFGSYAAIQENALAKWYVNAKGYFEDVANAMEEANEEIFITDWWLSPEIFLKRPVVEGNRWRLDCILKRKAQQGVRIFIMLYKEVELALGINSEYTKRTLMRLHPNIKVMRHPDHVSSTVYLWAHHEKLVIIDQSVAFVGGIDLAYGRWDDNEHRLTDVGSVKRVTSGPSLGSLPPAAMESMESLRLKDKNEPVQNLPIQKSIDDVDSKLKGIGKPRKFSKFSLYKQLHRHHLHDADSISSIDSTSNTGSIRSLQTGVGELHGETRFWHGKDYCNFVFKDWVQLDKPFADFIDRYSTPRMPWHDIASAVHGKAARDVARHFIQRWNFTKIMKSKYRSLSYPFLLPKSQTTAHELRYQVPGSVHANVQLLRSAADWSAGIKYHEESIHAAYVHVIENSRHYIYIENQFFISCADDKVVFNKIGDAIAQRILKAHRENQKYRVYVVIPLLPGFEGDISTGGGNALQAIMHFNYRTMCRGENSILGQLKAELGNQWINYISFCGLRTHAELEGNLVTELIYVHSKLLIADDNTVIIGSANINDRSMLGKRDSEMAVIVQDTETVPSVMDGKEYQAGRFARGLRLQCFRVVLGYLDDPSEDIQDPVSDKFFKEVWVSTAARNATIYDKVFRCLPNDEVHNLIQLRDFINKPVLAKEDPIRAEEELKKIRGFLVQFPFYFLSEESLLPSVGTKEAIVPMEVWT
Protocol: Spodoptera frugiperda (Sf9) cells were cultured in suspension at 2×10^5 to 2×10^6 cells/ml TC 100 medium supplemented with 10% fetal calf serum (Gibco). A cDNA encoding human PLD1b (cloned from placental tissue) was inserted into the transfer vector pACGHLT (Pharmingen) downstream of, and in frame with, vector sequences encoding glutathione-S-transferase (GST), hexahistidine, a protein kinase A phosphorylation site and a thrombin cleavage site. The GST-hPLD1b construct was cotransfected into Sf9 cells with linearized, polyhedrin-minus (PH-), AcMNPV DNA, Bac-N-Blue, according to the supplier's instructions (Invitrogen). Homologous recombination between linearized virus and the transfer vector restored the function of essential viral gene ORF1629 to yield infectious, recombinant virus. After two rounds of plaque-purification, recombinant virus was amplified by large scale infections of Sf9 cells until a titer of 8×10^7 pfu/ml was obtained. […]
(§2) PMN lysates (90-130 μg protein), purified phospholipase D (3-30 units) (EC 3.1.4.4., Sigma Chemical Co.) or recombinant hPLD1b were warmed (37° C. for mammalian enzyme and 30° C. for cabbage, 3 min) and exposed to PSDP, PSMP or FDP (10-1000 nM, 5 min, 37° C. or 30° C.) followed by PC (0.5 to 5 mM) in Tris-HCl (50 mM pH 7.5) with CaCl2 (30 mM). […] Choline release was quantitated as in ref 26.

[3] = tested on: PLD activity in PMN lysates; assay: PLD activity in PMN lysates after LTB4, lipid added to the lysate; type: biochemical, human; conditions: 100 nM added to PMN lysates 60 sec after LTB4 100 nM
Protocol: Lysates were generated from cells at rest or after exposure to agonist using a lysis buffer comprised of 0.1 M Hepes (pH 7.4), 0.7 mM sodium orthovanadate, 10 μM p-nitrophenylphosphate, 10 mM EGTA, 5.5% triton X-100, 0.5 M β-glycerophosphate, 10 mM phenylmethylsulfonylfluoride, 0.1 mM ammonium molybdate, 12 mM DFP, 5 μgml^−1 leupeptin, 2 μgml^−1 aprotinin and 7 μgml^−1 pepstatin A (as in ref 25) and utilized for bioassay.
as §1
Because PLD activation occurs in vivo in the presence of many cofactors which modulate its activity, it was also determined the impact of PSDP on PLD activity in PMN lysates. Sixty seconds following LTB4, PSDP levels decreased (28%, FIG. 1) and PLD activity was maximal (FIG. 2).

[4] = tested on: PLD activity in human PMN; assay: LTB4-stimulated PLD activity in lysates of treated human PMN; type: cell-based
Protocol: (§3) Cell lysates (2-5×10^6 cells, 90-130 μg protein) were prepared from the same aliquots of PMN used to determine PSDP (see FIG. 1 & Methods), warmed to 37° C. and exposed to PC (2 mM in 50 mM Tris-HCl, pH 7.5, plus 30 mM CaCl2). Reactions were terminated at 30 sec intervals and choline release was quantitated (26). […] Superoxide anion generation by freshly isolated human PMN was determined (10 min, 37° C.) for LTB4 (100 nM), 15-epi-LXa (100 nM), and increasing concentrations of 15-epi-LXa (1-100 nM, 5 min, 37° C.) followed by LTB4 (100 nM, 10 min, 37° C.). Values reported in Panel C are the mean±S.E. for n=3 separate PMN donors. *P<0.05 by Student's t-test.
Peripheral venous blood (˜180 ml) was obtained by venipuncture from healthy volunteers who denied taking any medication for at least two weeks and had given written informed consent to a protocol approved by Brighamn and Women's Hospital's Human Research Committee. […]
as §2

[32P]-PSDP in human PMN = PSDP remodeling in [32P]-labeled human PMN (TLC, phosphoimaging); type: cell-based
Protocol: Panel A: Scheme for aspirin-triggered 15-epi-LXA4 biosynthesis and structure of the stable analog, 15-epi-16-para-fluoro-phenoxy-LXA4-methyl ester (15-epi-LXa) (left), and hypothetical scheme for PIPP signaling (right). PMN were labeled with [γ-^32P]-ATP and incubated (12.5×10^6 ml^−1, 37° C.) with LTB4 (●, 100 nM), 15-epi-LXa (♦, 100 nM), vehicle (□, 0.1% ethanol) or 15-epi-LXa (100 nM, 5 min) followed by LTB4 (▴, 100 nM). Non-saponifiable lipids were extracted and separated by TLC, and [^32P]-incorporation was quantitated by phosphoimaging (see Methods). Values are densitometric measurements.
Peripheral venous blood (˜180 ml) was obtained by venipuncture from healthy volunteers who denied taking any medication for at least two weeks and had given written informed consent to a protocol approved by Brighamn and Women's Hospital's Human Research Committee. PMN were isolated from whole blood and steady state labeled with [γ-^32P]ATP (40 μCiml^−1, 90 min, 37° C.) as in (Levy, B. D., Petasis, N. A., and Serhan, C. N. (1997) Polyisoprenyl phosphates in intracellular signalling. Nature 389, 985-989). Labeled PMN were resuspended (20×10^6 ml^−1 PBS with 1 mM CaCl2, pH 7.40) and exposed to LTB4 (100 nM), 15-epi-LXa (100 nM) or vehicle (0.1% EtOH) for 0 to 300 seconds (37° C.). From each incubation, aliquots were removed at indicated intervals to determine the radiolabeling of nonsaponifiable lipids (10-12×10^6 PMN) and PLD activity (1-1.25×10^6 PMN). Materials present in each incubation were saponified, extracted and separated by TLC with phosphoimaging (model 425E and integration software; Molecular Dynamics), which was used for PSDP mass determination as in ref 22.

human PMN = assay: LTB4-stimulated superoxide anion generation by human PMN (cytochrome c); type: cell-based; conditions: 15-epi-LXa 1-100 nM, 5 min, then LTB4 100 nM, 10 min, 37° C.
Protocol: as §3
Freshly isolated human PMN (1-3×10^6 PMN/ml HBSS+1.6 mM CaCl2) were incubated (5 min, 37° C.) in the presence of 15-epi-LXa (1-100 nM) or vehicle (0.1% ethanol), and then exposed (10 min) to LTB4 (100 nM) in the presence of cytochrome c (7 mg/ml). Superoxide anion generation was determined as in ref 22.

[5] = effect on LTB4-stimulated changes in PSDP

CC(C)=CCC/C(C)=C/CC/C(C)=C/C1C(COP(=O)(O)OP(=O)(O)O)C1(C)CC/C=C(\C)CCC=C(C)C (stereo in doubt) [Presqualene diphosphate, presqualene diphosphate]
mode of inhibition (Lineweaver-burk analyses) ([1]; PSDP 10 to 1000 nM): competitive inhibition model
Ki [1]: 20 nM
Vm app [1]: 0.25
Ki ([2]; rhPLD1b 0.3 u/reaction, 37° C.): 6 nM
Vm app ([2]; rhPLD1b in presence of the lipid, enzyme alone Vm 0.36 (nmoles/sec)): 0.03
inhibition of PLD activity [3]: 89.5+/−9.7%

CC(C)=CCC/C(C)=C/CC/C(C)=C/C1C(COP(=O)(O)O)C1(C)CC/C=C(\C)CCC=C(C)C (stereo in doubt) [Presqualene monophosphate, presqualene monophosphate]
loss in inhibitory potency compared to PSDP ([1]; cPLD): greater than 100 fold
Ki [1]: 3210 nM
Vm app [1]: 0.36

COC(=O)CCC[C@H](O)[C@H](O)/C=C/C=C/C=C\C=C\[C@H](O)COc1ccc(F)cc1 [15-epi-LXa, 15-epi-16-para-fluoro-phenoxy-LXA4-methyl ester]
inhibition of LTB4-stimulated PLD activity ([4]; 15-epi-LXa 100 nM, 5 min, then LTB4 100 nM, at 60 sec): ~81%
effect alone on rate of PIPP remodeling ([32P]-PSDP in human PMN; 100 nM, without LTB4): did not affect the rate of PIPP remodeling
increase in [32P]-PSDP ([32P]-PSDP in human PMN; 15-epi-LXa 100 nM, 5 min, then equimolar LTB4 100 nM, at 60 sec): ~72%
potency relative to 16-phenoxy-LXA4 and LXA4 ([32P]-PSDP in human PMN; [5]): 1-2 orders of magnitude
rank order of potency ([32P]-PSDP in human PMN; [5]): 15-epi-LXa>16-phenoxy-LXA4>LXA4
inhibition of LTB4-stimulated O2- generation (in words) (human PMN): potently inhibited

COC(=O)CCC[C@H](O)[C@H](O)/C=C/C=C/C=C\C=C\[C@H](O)COc1ccccc1 [16-phenoxy-LXA4, 16-phenoxy-LXA4-methyl ester]
rank order of potency ([32P]-PSDP in human PMN; [5]): 15-epi-LXa>16-phenoxy-LXA4>LXA4

CCCCC/C=C\C[C@@H](O)/C=C/C=C/C=C\[C@@H](O)CCCC(=O)O [LTB4, leukotriene B4]
time of maximal increase in PLD activity ([4]; LTB4 100 nM): ≤ 60 s
decrease in [32P]-PSDP ([32P]-PSDP in human PMN; LTB4 100 nM, within 60 sec, 37° C.): 28%

CCCCC[C@H](O)/C=C/C=C\C=C\C=C\[C@@H](O)[C@@H](O)CCCC(=O)O [LXA4, lipoxin A4]
rank order of potency ([32P]-PSDP in human PMN; [5]): 15-epi-LXa>16-phenoxy-LXA4>LXA4

CC(C)=CCC/C(C)=C/CC/C(C)=C/CC/C=C(\C)CC/C=C(\C)CCC=C(C)C [Squalene]
Vm app [1]: 0.46
inhibition of cPLD (in words) [1]: Comparable inhibition was not evident

phosphatidic acid
Vm app [1]: 0.43
inhibition of cPLD (in words) [1]: Comparable inhibition was not evident
